System: mouse myoblast strain C2C12 (myotube cells)
Experiment: Myotube area and maximum transverse diameter of C2C12 myotube cells (anti-MHC immunostaining, imaging analysis)
Type: cell-based
Conditions: for Maximum transverse diameter/myotube cell (%) Average value / Myotube area/field of view (%) Average value: two days, untreated control = 100%
Protocol: Cells of mouse myoblast strain C2C12 (ATCC catalog no. CRL-1772)
Proliferation culture medium: DMEM (high glucose) to which 10% FBS and 1% PS are added
Differentiation culture medium: DMEM (high glucose) to which 2% HS and 1% PS are added
The fatty acids indicated below were added to the culture medium so as to reach a concentration of 0.05 mM, 0.2 mM, or 0.5 mM. As a positive control, insulin-like growth factor (IGF-1) (made by Sigma-Aldrich Co., LLC), which is a factor for promoting formation of myotube cells, was added to the culture medium so as to reach a concentration of 10 ng/mL.
The fatty acids were dissolved in dimethyl sulfoxide (DMSO) (made by Nacalai Tesque Inc.) to formulate solutions having a concentration of 0.05 M, 0.2 M, 0.5 M, or 1 M, and the solutions were added in 1/1000 amounts to the culture medium to reach a target final concentration of 0.05 mM, 0.2 mM, 0.5 mM, or 1 mM. The IGF-1 serving as a positive control was formulated to a concentration of 10 μg/mL using 0.1 N HCl, and the resultant solution was added in a 1/1000 amount to the culture medium to reach a target final concentration of 10 ng/mL.
The C2C12 cells were recovered in a T75 flask using the proliferation culture medium and cultured using a CO2 incubator (37° C., 5% CO2, moist; same applies below). The culture medium was replaced at intervals of one to two days. The cells were peeled away (3 to 5 minutes) using 0.25% trypsin-EDTA (made by Nacalai Tesque Inc.) (1 mL) at the point in time when 80% confluence was reached, and 5 mL of culture medium was added, after which the components were centrifuged (180×g, 5 minutes, room temperature). A supernatant was removed, and cell pellets were suspended in fresh culture medium and sown in a 96-well black plate at a rate of 10,000 cells/0.1 mL/well. The next day, the culture medium was replaced with the differentiation culture medium, and culturing was carried out for two days to induce differentiation into myotube cells. The culture medium was then replaced with differentiation culture medium (100 μL) to which the substance under test was added, and culturing was carried out for a further two days.
After treatment with the substance under test, the wells were refilled with 100 μL of a fixing solution (4% PFA: paraformaldehyde (made by Nacalai Tesque Inc.)), incubated for 15 minutes at 4° C., and then washed three times using Dulbecco's Phosphate-Buffered Saline (DPBS) (made by Thermo Fisher Scientific Inc.). 100 μL of a blocking/membrane permeation liquid solution (0.3% TritonX/3% BSA/DPBS) was added, and the components were incubated for 30 minutes at room temperature. The aforementioned solution replaced with a primary antibody solution (primary antibody reagent (diluted by a factor of 300)/3% BSA/DPBS) and then incubated overnight at 4° C. The primary antibody solution was removed, and the wells were washed three times using a blocking solution (3% BSA/DPBS) before being refilled with a secondary antibody solution (secondary antibody reagent (diluted by a factor of 500)/0.1% nucleus-staining reagent/3% BSA/DPBS) and incubated for two hours at room temperature. Finally, the wells were washed three times using DPBS and refilled with new DPBS before imaging analysis was carried out.
An automatic cell image system (“Operetta CLS,” made by PerkinElmer Inc.) was used in the imaging analysis of the immunostained cells. Nine fields of view of central sections of the wells were imaged using a 10× objective lens, and then fluorescent regions marked by the anti-MHC antibodies and cell nucleus regions marked by the nucleus-staining reagent were detected using image analysis software (Harmony 4.6) included with the system. […]

[1] = Table 1 data, 0.5 mM, vs comparative example 1-1, Dunnett's test, 5%
[2] = Table 2 data, 0.2 mM, vs comparative example 2-1
[3] = Table 2 data, 0.5 mM, vs comparative example 2-1
[4] = Table 3 data, 0.5 mM, vs comparative example 3-1

CCCCCCCCCCCCCCCCC(=O)O [Heptadecanoic acid (C17:0), Heptadecanoic acid, reference compound]
Maximum transverse diameter/myotube cell (%) Average value (Table 1, 0.5 mM, n=5): 98.4% | Myotube area/field of view (%) Average value (Table 1, 0.5 mM, n=5): 82.8% | area of the myotube cells within the fields of view, change versus control (in words) [1]: significantly decreased

CCCCCCCCCCCCCCCC(=O)O [Hexadecanoic acid (C16:0), Hexadecanoic acid, reference compound]
Maximum transverse diameter/myotube cell (%) Average value (Table 4, 0.05 mM): 98.7% | Myotube area/field of view (%) Average value (Table 4, 0.05 mM): 91.4% | Maximum transverse diameter/myotube cell (%) Average value (Table 4, 0.5 mM): 104.9% | Myotube area/field of view (%) Average value (Table 4, 0.5 mM): 80.9% | per-cell maximum transverse diameter of the myotube cells, effect (in words) (Table 4 data, 0.05 mM): no effect | per-cell maximum transverse diameter of the myotube cells, effect (in words) (Table 4 data, 0.5 mM): no effect | area of the myotube cells within the fields of view, change versus control (in words) (Table 4 data, 0.5 mM, vs comparative example 4-1): significantly decreased

CCCCCCCCCCCCCCC(=O)O [Pentadecanoic acid (C15:0), Pentadecanoic acid]
Maximum transverse diameter/myotube cell (%) Average value (Table 1, 0.5 mM, n=5): 132.2% | Myotube area/field of view (%) Average value (Table 1, 0.5 mM, n=5): 116.0% | area of the myotube cells within the fields of view, change versus control (in words) [1]: significantly increased | per-cell maximum transverse diameter of the myotube cells, change versus control (in words) [1]: significantly increased | Maximum transverse diameter/myotube cell (%) Average value (Table 2, 0.05 mM): 103.0% | Myotube area/field of view (%) Average value (Table 2, 0.05 mM): 108.0% | Maximum transverse diameter/myotube cell (%) Average value (Table 2, 0.2 mM): 109.3% | Myotube area/field of view (%) Average value (Table 2, 0.2 mM): 119.3% | Maximum transverse diameter/myotube cell (%) Average value (Table 2, 0.5 mM): 111.4% | Myotube area/field of view (%) Average value (Table 2, 0.5 mM): 118.7% | per-cell maximum transverse diameter of the myotube cells, change versus control (in words) (Table 2 data, 0.05 mM, vs comparative example 2-1): significantly increased | area of the myotube cells within the fields of view, change versus control (in words) [2]: significantly increased | per-cell maximum transverse diameter of the myotube cells, change versus control (in words) [2]: significantly increased | area of the myotube cells within the fields of view, change versus control (in words) [3]: significantly increased | per-cell maximum transverse diameter of the myotube cells, change versus control (in words) [3]: significantly increased

CCCCCCCCCCCCCC(=O)O [Tetradecanoic acid (C14:0), Tetradecanoic acid]
Maximum transverse diameter/myotube cell (%) Average value (Table 3, 0.5 mM): 108.6% | Myotube area/field of view (%) Average value (Table 3, 0.5 mM): 114.7% | Maximum transverse diameter/myotube cell (%) Average value (Table 3, 1 mM): 124.4% | Myotube area/field of view (%) Average value (Table 3, 1 mM): 107.3% | area of the myotube cells within the fields of view, change versus control (in words) [4]: significantly increased | per-cell maximum transverse diameter of the myotube cells, change versus control (in words) [4]: significantly increased | per-cell maximum transverse diameter of the myotube cells, change versus control (in words) (Table 3 data, 1.0 mM, vs comparative example 3-1): significantly increased

CCCCCCCCCCCCC(=O)O [Tridecanoic acid (C13:0), Tridecanoic acid]
Maximum transverse diameter/myotube cell (%) Average value (Table 1, 0.5 mM, n=5): 124.1% | Myotube area/field of view (%) Average value (Table 1, 0.5 mM, n=5): 98.1% | per-cell maximum transverse diameter of the myotube cells, change versus control (in words) [1]: significantly increased

CCCCCCCCCCC(=O)O [Undecanoic acid (C11:0), Undecanoic acid, reference compound]
Maximum transverse diameter/myotube cell (%) Average value (Table 1, 0.5 mM, n=5): 103.1% | Myotube area/field of view (%) Average value (Table 1, 0.5 mM, n=5): 103.4% | effect on the myotube cells (in words) (Table 1 data, 0.5 mM): no effect

IGF-1: insulin-like growth factor (IGF-1), a factor for promoting formation of myotube cells; positive control at 10 ng/mL
Maximum transverse diameter/myotube cell (%) Average value (Table 1, 10 ng/mL): 101.8% | Myotube area/field of view (%) Average value (Table 1, 10 ng/mL): 114.1% | Maximum transverse diameter/myotube cell (%) Average value (Table 2, 10 ng/mL): 99.1% | Myotube area/field of view (%) Average value (Table 2, 10 ng/mL): 126.8% | Maximum transverse diameter/myotube cell (%) Average value (Table 3, 10 ng/mL): 100.4% | Myotube area/field of view (%) Average value (Table 3, 10 ng/mL): 120.5% | Maximum transverse diameter/myotube cell (%) Average value (Table 4, 10 ng/mL): 104.8% | Myotube area/field of view (%) Average value (Table 4, 10 ng/mL): 132.8%

Reference: patent publication US20240115534A1, “COMPOSITION FOR MUSCLE ENHANCEMENT AND USE OF SAME” (J-OIL MILLS, INC., priority 2021, published 2024)
